We go through 1 compound from patent US11021628B2, “Coating composition containing methyl cellulose, method for producing the same, and solid preparation” (Shin-Etsu Chemical Co., Ltd., priority 2016, dated 2021).

Structures are written as SMILES.

This series is described as follows: Dissolution Test, Paddle method, Japanese Pharmacopoeia Sixteenth Edition. The series is classed as physicochemical. Particulars: acetaminophen, water, paddle 100 rpm. The procedure:
The coated granules was subjected to the dissolution test in accordance with Dissolution Test, Paddle method in the Japanese Pharmacopoeia Sixteenth Edition at a paddle rotation rate of 100 rpm with water as the test liquid, and the drug concentration was quantitatively determined at a measurement wavelength of 244 nm by using an ultraviolet spectrophotometer (UV-1700, manufactured by Shimadzu Corporation).
As Reference Example 1, the dissolution rates of an acetaminophen powder after 1 minute and 10 minutes are also shown in Table 3.

As for `CC(=O)Nc1ccc(O)cc1` [Ref. Ex. 1, acetaminophen], the “dissolution ratio after 1 minute” value (1 minute) is listed as 48.0%. In addition, the “dissolution ratio after 10 minutes” value (10 minutes) is listed as 99.6%.
